According to patent US10357537B2, “Cyclotides as immunosuppressive agents” (priority 2011, dated 2019):
Bridge positions count the residues as written; N and C are the ends. Peptide text beside a SMILES is read from it.

Experiments:
[1] = system: spleenocytes restimulated with MOG35-55; assay: Cytokine release of spleenocytes from treated EAE mice, ELISA; format: cell-based, mouse
Procedure: FIG. 21. Effect on cytokine release of ex vivo isolated PBMC at day 3. Spleenocytes of sacrificed mice were isolated and restimulated with MOG35-55 (30 μg/mL) for three days or left untreated. Supernatants of these cells were used for analyzing cytokine release in ELISAs. In (A) interleukin 2 release was highest in splenic T-cells isolated from naïve mouse group that were restimulated with MOG, correlating with disease course. […] There was hardly any cytokine IL4 detectable (E), opposing a TH2 immune response, which was expected.
Spleens of sacrificed mice were taken and transferred into a 6 cm Petri Dish with 5 mL sterile PBS. To receive a spleenocyte suspension, spleens were meshed and filtered through 70 μm nylon sieve. Cells were centrifuged at 1200 rpm for 5 minutes and resuspended in RPMI 1640 media supplemented with 10% fetal calf serum (FCS), 2 mM L-glutamine, penicillin (100 U/mL), and streptomycin (100 μg/mL). Spleenocytes were cultivated at a concentration of 3×10^6/mL in a 48-well flat-bottom plate (500 μL/well). Cells were stimulated with 30 μg/mL MOG35-55 or left untreated and incubated at 37° C. for three days. Supernatants and cells were taken stored at −20° C. until further experiments. […] After 12 hours MOG or T20K was added to appropriate wells. Supernatants were stored after 24 hours and after 48 hours at −20° C.
Supernatants of stimulated spleenocytes were analyzed for their IL2, IL17, INFγ, IL4 and IL22 cytokine release using anti-mouse antibodies for ELISA from eBioscience according to the manufacturer's instructions. The color reaction was evaluated at an optical density of 450 nm by the microplate reader Synergy H4 (BioTek).

human primary T-cells = assay: Ca2+ release, Fura-2; format: cell-based; conditions: T20K 4 μM
Procedure: FIG. 17. Ca^2+ release in human Jurkat and T-cells. Jurkat cells (A) and T-cells (B) 1×10^6 were loaded with 1 μM Fura-2 and 0.02% Puronic F-127 for 30 minutes at 37° C. Cells were centrifuged for 5 minutes at 1200 rpm and resuspended in media [RPMI 1640 with 10% FCS, penicillin (100 U/mL) and streptomycin ([…])]. 100 μL of cell suspension were transferred to a black 96-well plate with a clear flat-bottom. Briefly before analysis the fluorometer Synergy H4 (BioTek) was tempered to 37° C. The fluorescence time course was then measured with: extinction 340/380 nm and emission 510 nm in 30 seconds intervals, continuously shaking. Ca^2+ influx was initiated by adding compounds to the cells (illustrated by the arrow). To receive maximum Ca^2+ release cells were stimulated with PMA (50 ng/mL) and Ionomycin (500 ng/mL) and T-cells additionally with PHA-L (10 μg/mL). For lowest Ca^2+ levels, cells remained untreated.
Jurkat cells T-cells were treated as described for FIG. 17, supra.

[2] = system: activated human primary PBMC; assay: Anti-proliferative CFSE cell division assay on anti-CD3/CD28-activated PBMC; conditions: CFSE, flow cytometry; extract 50-100 μg/mL, cyclotides 1.8-14 μM, melittin 0.05-1.6 μM
Procedure, shortened: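 Healthy-donor PBMC were CFSE-labelled (5 μM, 10 min, 37° C.), activated with anti-CD3/CD28 and cultured in RPMI 1640 with 10% FCS at 37° C. with the cyclotide mutants/variants. Proliferation was read as cell division by flow-cytometric CFSE histogram analysis.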

[3] = system: NFATc1 in splenic T-cells of naive mouse group; assay: Western blot for NFATc1; format: cell-based; conditions: compared to V10K and MOG
Procedure: (§1) FIG. 23. Effect of cyclotides on protein expression of NFAT1c. […] But instead of stimulating with PHA-L and PMA/ionomycin, one part of the cells was stimulated with PHA-L (10 μg/mL) and the other with PMA (50 ng/mL)/ionomycin (500 ng/mL) over night. […] Splenic T-cells isolated from naïve mouse group were stimulated as described above.
(§2) Human T-cells provided by CCRI from A. Dohnal, PhD were stimulated according to the protocol for IL2 release described above. Stimulated cells were resuspended in TBS and mixed at equal parts with sample buffer and heated for five minutes at 95° C. A sodium dodecyl sulfate polyacrylamide gel was prepared to separate the proteins achieved from the lysed T-cells. After electrophoresis proteins were transferred from the gel to a membrane. After blocking the membrane with BSA 3% in TBST over night at 4° C., the first antibody mouse anti-NFATc1 was incubated for 2 hours at room temperature. After five times washing with TBST 0.1% Tween, the membrane was incubated with the second antibody anit-mouse IgG HRP for one hour at room temperature. The membrane was dried and treated with West Pico or West Femto Super Signal Solution according to the manufactures protocol to evaluate the chemo-luminescence signal.

NFATc1 in human T-cells = assay: Western blot for NFATc1; format: cell-based; conditions: CsA 5 μg/mL, T20K 4 μM; compared to V10K, PHA-L, PMA/Ionomycin
Procedure: as §1, §2

CC(C)C[C@@H]1NC(=O)CNC(=O)[C@H](CC(N)=O)NC(=O)[C@H](CCCNC(=N)N)NC(=O)[C@H]([C@@H](C)O)NC(=O)[C@@H]2CSSC[C@@H]3NC(=O)[C@H]([C@@H](C)O)NC(=O)CNC(=O)CNC(=O)[C@H](C(C)C)NC(=O)[C@@H]4CSSC[C@H](NC(=O)[C@H](CCCCN)NC(=O)[C@H](CSSC[C@H](NC(=O)[C@H](C(C)C)NC(=O)[C@@H]5CCCN5C1=O)C(=O)NCC(=O)N[C@@H](CCC(=O)O)C(=O)N[C@@H]([C@@H](C)O)C(=O)N4)NC(=O)CNC(=O)[C@@H]1CCCN1C(=O)[C@H]([C@@H](C)O)NC(=O)[C@H](CC(N)=O)NC3=O)C(=O)N[C@@H](CO)C(=O)N[C@@H](Cc1c[nH]c3ccccc13)C(=O)N1CCC[C@H]1C(=O)N[C@@H](C(C)C)C(=O)N2 [Kalata T20K] (cyclo(CGETCVGGTCNTPGCKCSWPVCTRNGLPV); disulfide 1-15, 5-17, 10-22 (inferred); ring closure inferred)
IL2 release of spleenocytes from mice treated at day 7 ([1]; T20K (7), after MOG stimulation, vs naive group): IL2 release was lower than in naïve group | IL17, IL22 and INFγ release of spleenocytes from pre-treated mice ([1]; T20K (-7, 0)): inhibitory effect could also be demonstrated towards the cytokines IL17, IL22 and INFγ in T-cells of T20K (−7, 0) treated mice, although not significantly | IL2 production of spleenocytes from pre-treated mice ([1]; T20K day -7 or 0, MOG35-55 30 μg/mL, three days): significant inhibition of the IL2 production | Ca2+ release in human primary T-cells (human primary T-cells): increasing Ca^2+ release | cell division / proliferation of activated PBMC (in words) [2]: show anti-proliferative capacity | NFATc1 signal in mouse splenic T-cells [3]: reduced NFATc1 signal | NFATc1 signal in human T-cells (NFATc1 in human T-cells): reduced signal of NFATc1
